For data set [1], the system named is HCT116 colon cancer cells. Briefly: Cytotoxicity assay, HCT116. Particulars: read-out: Cytotoxicity IC50 HCT116.
Method: (§1) Colon cancer cell lines HT29, HCT116, and SW480 (10,000 cells) were plated into 24-well plates in Dulbecco's modified Eagle medium (DMEM) containing 10% fetal bovine serum (FBS). […] The plates were washed with PBS once and the attached cells were collected by tripsinization.
The test system of data set [2] is HT29 colon cancer cells. Briefly: Cytotoxicity assay, HT29. Conditions: read-out: Cytotoxicity IC50 HT29.
Method: as §1
A short description of data set [3]: DPPH assay (antiradical activity). Conditions: 400 μM DPPH. The method, then: The DPPH assay was performed on extracts, fractions, and purified compounds as previously described, using 400 μM DPPH (9).
The DPPH assay is an indication of the ability of a substance to scavenge free radicals. Gallic acid is know to be an effective free radical scavenger.

For data set [4], the system named is IL-8 production in human small airway epithelial (SAE) cells. Briefly: IL-8 immunoassay (ELISA) in SAE cells. Type of data set: cell-based. Conditions: compound 100 μM, 24 hours; for inhibition at 100 µM: Homo sapiens. The protocol: Human SAE cells were cultured according to supplier instructions (Clonetics, CA) and maintained in a controlled atmosphere of air-5% CO2 at 37° C. Confluent SAE cells at passages 4-8 were used for experiments.
Cigarette smoke extract (CSE) was prepared using a modified protocol (24). Briefly, a Barnet vacuum pump operating at constant flow was used to draw the smoke of one unfiltered 2R1 reference cigarette (University of Kentucky) through 25 mL of Dulbecco's phosphate-buffered saline. This solution (100% CSE) was adjusted to pH 7.4, filtered, diluted with small airway growth medium to a final concentration of 5%, and added to the cells immediately.
Cells were treated with 5% CSE or pure compounds (100 μM), or pretreated with pure compounds 30 minutes prior to 5% CSE exposure. After 24 hours measurement of human IL-8 in cell culture supemates was performed by ELISA (R&D Systems Inc., MN). Statistical analyses were performed by Student's t-test (two-sided) using the JMP Statistics software package (SAS Institute Inc., NC) and defined at the 5% level.

Data set [5] deals with HCT116 colon cancer cells.
Method: as §1
Data set [6] relates to HT29 colon cancer cells.
Method: as §1
In a further data set the test system is SW480 colon cancer cells. As to the kind of experiment: Cytotoxicity assay, SW480. Type of data set: cell-based. Conditions: 72 hours, cell count.
Data set [7] deals with HT29 colon cancer cells. Conditions: positive controls, refs (8, 19); cited from earlier work.
Setting [8] is: pretreated 30 minutes prior to 5% CSE.

The values that follow come from patent publication US8846757B2, “Bioactive depside and anthocyanin compounds, compositions, and methods of use” (The Trustees of Columbia University in the City of New York, priority 2006, dated 2014).

For orientation: IC50 means the midpoint of a concentration-inhibition curve. The term inhibition denotes the drop in the measured response relative to a control, in per cent.

Where two headings read alike, the source gives them in different places.

Method for SW480 colon cancer cells: as §1

With `COC(=O)Cc1c(O)cc(O)cc1OC(=O)c1ccc(O)c(O)c1` [Compound 1, methyl 2-[(3,4-dihydroxybenzoyloxy)-4,6-dihydroxyphenyl]acetate], the IC50 in data set [1] (Homo sapiens, HCT-116, 72 h) is more than 100 µM; in the data set on HT29 colon cancer cells [2] (Homo sapiens, HT-29, 72 h), 65 µM; in data set [3], 51.4 µM. The inhibition at 100 µM in data set [4] (no CSE, read-out: IL-8 inhibition in SAE cells, Untreated) was 81.3%; in data set [4] (pretreated 30 minutes prior to 5% CSE, read-out: IL-8 inhibition in SAE cells, Treated with 5% CSE), 47.3%.

On to `O=C(O)Cc1c(O)cc(O)cc1OC(=O)c1ccc(O)c(O)c1` [Compound 2, 2-O-(3,4-dihydroxybenzoyl)-2,4,6-trihydroxyphenylacetic acid], for which the IC50 is 30 µM in data set [5], more than 100 µM in the data set on HT29 colon cancer cells [6] and 61.8 µM in data set [3]. In data set [4] (no CSE), the “IL-8 inhibition in SAE cells, Untreated” value is given as 74.9%. Besides, the “IL-8 inhibition in SAE cells, Treated with 5% CSE” value (from here on “IL-8 inhibition … with 5% CSE”) in data set [4] (setting [8]) is 70.3%.

With `OC[C@H]1O[C@@H](Oc2cc3c(O)cc(O)cc3[o+]c2-c2ccc(O)c(O)c2)[C@H](O)[C@@H](O)[C@@H]1O` [Compound 3, cyanidin 3-glucoside], the IC50 in the data set on SW480 colon cancer cells was 90 to 100 µM; in data set [1] (72 hours, cell count), approximately 70 µM; with HT29 colon cancer cells [2] (72 hours, cell count) it was approximately 100 µM; in data set [3], 28.4 µM. In data set [4] (no CSE), the “IL-8 inhibition in SAE cells, Untreated” value came out at 65.3%. For the same compound, in data set [4] (setting [8]), the “IL-8 inhibition … with 5% CSE” value stood at 36.4%.

`OC[C@H]1O[C@@H](Oc2cc3c(O)cc(O)cc3[o+]c2-c2cc(O)c(O)c(O)c2)[C@H](O)[C@@H](O)[C@@H]1O` [Compound 4, delphinidin 3-glucoside]: the concentration for half-maximal inhibition (IC50) in the data set with SW480 colon cancer cells was 20 µM; in data set [1] (72 hours, cell count), 12 µM; in the data set on HT29 colon cancer cells [2] (72 hours, cell count), approximately 100 µM; in data set [3], 26.3 µM. For the same compound, the “IL-8 inhibition in SAE cells, Untreated” value in data set [4] (no CSE, 100 µM) is “Not Detected”. Also, the “IL-8 inhibition … with 5% CSE” value in data set [4] (setting [8]) is 96.0%.

For the compound `O=c1[nH]cc(F)c(=O)[nH]1` [Compound 5-FU, 5-fluorouracil, reference compound], the IC50 with SW480 colon cancer cells (Homo sapiens, SW480) was 53 µM; in data set [1] (Homo sapiens, HCT-116, 72 h), 45.1 µM; in the data set with HT29 colon cancer cells [2] (Homo sapiens, HT-29, 72 h), 46.1 µM.

For `O=C(O[C@@H]1Cc2c(O)cc(O)cc2O[C@@H]1c1cc(O)c(O)c(O)c1)c1cc(O)c(O)c(O)c1` [EGCG, epigallocatechin gallate], the “HT29 IC50” value with HT29 colon cancer cells [7] was 27 µg/mL.

In data set [3], `O=C(O)c1cc(O)c(O)c(O)c1` [Gallic acid, gallic acid, reference compound] displayed an IC50 of 30 ± 2.9 µM.

In the case of catechin [reference compound], in data set [4] (no CSE), the “IL-8 inhibition in SAE cells, Untreated” value is “No Change”. The “IL-8 inhibition … with 5% CSE” value in data set [4] (setting [8]) is on record as 60.3%.
